Data from patent US20250368697A1, “MODIFIED PEPTIDE DERIVED FROM URECHIS UNICINCTUS IN PREPARATION OF DRUG FOR TREATING ALCOHOLIC LIVER DISEASE” (Beijing Institute of Petrochemical Technology, priority 2024, published 2025).
Like-named read-outs stand apart in the source and are kept apart here. Where no end group is shown, it is not given here.

Tests used:
HepG2 cells [1] = test: Biochemical indicators (ALT, AST, TC, TG, HDL-C, LDL-C) in alcoholic damaged HepG2 cells; type: cell-based, human; conditions: 3 mM (positive control); 500 mM ethanol-damaged HepG2
Procedure: (§1) HepG2 cells are collected, digested, centrifuged, and resuspended. The HepG2 cells are then seeded into a 6-well plate at a density of 1×10^6 cells per well, with 1.6 mL of cell suspension added to each well. After incubating the plate in a 37° C., 5% CO2 incubator for 24 hours, 200 μL of distilled water is added to the blank wells as the blank group. Referring to Section 1.2.2.2 and the preparation of blank group cell sample, an anhydrous ethanol-induced damage model is established. The HepG2 cells are damaged with 500 mM anhydrous ethanol for 24 hours. The model group receives 200 μL of distilled water, while the positive control wells receive 200 μL of NAC at a final concentration of 3 mM. The treatment wells receive 200 μL of the modified peptide derived from Urechis unicinctus of F2-1 at final concentrations of 200 μM, 300 μM, and 400 μM (dissolved in water). After adding the modeling solution, the plate is incubated in a 37° C., 5% CO2 incubator for an additional 24 hours. The 6-well plate is then taken out and placed on ice. All liquids in the wells are discarded, and the cells are washed three times with pre-chilled phosphate buffer solution (PBS). High-efficiency radio immunoprecipitation assay (RIPA) lysis buffer is added, and the HepG2 cells are lysed on ice for 30 minutes. The lysates are then centrifuged at 12,000 rpm for 10 minutes at low temperature, and the white precipitate is discarded.
Reagent kits are purchased from Nanjing Jiancheng Bioengineering Institute. An enzyme-linked immunosorbent assay (ELISA) plate reader is used to measure biochemical indicators such as alanine aminotransferase (ALT), aspartate aminotransferase (AST), triglycerides (TG), total cholesterol (TC), high-density lipoprotein cholesterol (HDL-C), and low-density lipoprotein cholesterol (LDL-C).

[2] = test system: Cytochrome P450 2E1 (CYP2E1); test: CYP2E1 content in alcoholic damaged HepG2 cells (ELISA); type: cell-based, human; conditions: 500 mM ethanol-damaged HepG2
Procedure: as §1
(§2) ELISA kits are purchased from Hangzhou Leyi Biotechnology Co., Ltd. An ELISA plate reader is used to measure indicators such as the interleukin-1β (IL-1β) ELISA kit, interleukin-6 (IL-6) ELISA kit, and Cytochrome P450 2E1 (CYP2E1) ELISA kit.

interleukin-1β (IL-1β) = test: IL-1β content in alcoholic damaged HepG2 cells (ELISA); type: cell-based, human; conditions: 3 mM (positive control); 500 mM ethanol-damaged HepG2
Procedure: as §1, with “All liquids in the wells are discarded, and the cells are washed three times with pre-chilled phosphate buffer solution (PBS). High-efficiency radio immunoprecipitation assay (RIPA) lysis buffer is added, and the HepG2 cells are lysed on ice for 30 minutes. The lysates are then centrifuged at 12,000 rpm for 10 minutes at low temperature, and the white precipitate is discarded.” left out
as §2

interleukin-6 (IL-6) = test: IL-6 content in alcoholic damaged HepG2 cells (ELISA); type: cell-based, human; conditions: 3 mM (positive control); 500 mM ethanol-damaged HepG2
Procedure: as §1, with “All liquids in the wells are discarded, and the cells are washed three times with pre-chilled phosphate buffer solution (PBS). High-efficiency radio immunoprecipitation assay (RIPA) lysis buffer is added, and the HepG2 cells are lysed on ice for 30 minutes. The lysates are then centrifuged at 12,000 rpm for 10 minutes at low temperature, and the white precipitate is discarded.” left out
as §2

HepG2 cells [3] = type: cell-based; conditions: human, 24 h
Procedure: When a cell density of the cells reached 90%, the cells are digested and passaged to form a single-cell suspension. The cell concentration is determined using a hemocytometer, and the suspension is adjusted to 8×10^4 cells per well. A volume of 180 μL of the cell suspension is added to each well of a 96-well plate. The 96-well plate is then incubated in a 37° C., 5% CO2 cell incubator for 24 hours. The cells are subjected to alcoholic damage for 24 hours using gradient concentrations of anhydrous ethanol at […] (final concentrations). A blank group received no addition. All solutions in the 96-well plate are aspirated, and 100 μL of a 10% CCK-8 solution is added to each well. After incubation for 1 hour, the absorbance is measured at 450 nanometers (nm) using a microplate reader. The cell viability is calculated using the following formula: […]
HepG2 cells are collected, digested, centrifuged, and resuspended. The HepG2cells are then seeded into a 96-well plate at a density of 8×10^4 cells per well, with 160 μL of cell suspension added to each well. After incubating the plate in a 37° C., 5% CO2 incubator for 24 hours, 20 μL of distilled water is added to a blank well as the blank group. Referring to Section 1.2.2.2 and the preparation of blank group cell sample, an anhydrous ethanol-induced damage model is established. The HepG2 cells are damaged with 500 mM anhydrous ethanol for 24 hours. The model group received 20 μL of distilled water, while the positive control wells received 20 μL of N-acetylcysteine (NAC) at a final concentration of 3 mM. The treatment wells receive 20 μL of the modified peptide derived from Urechis unicinctus of F2-1 at final concentrations of 200 μM, 300 μM, and 400 μM (dissolved in water). The 96-well plate is then incubated in a 37° C., 5% CO2 incubator for 24 hours after adding the modeling solution. […] The absorbance is measured at 450 nm using a microplate reader after 1 hour of incubation. The cell viability is calculated using the following formula: […]

CC(=O)N[C@@H](CS)C(=O)O [NAC, N-acetylcysteine]
ALT level in HepG2 cells (HepG2 cells [1]): 7.93±0.14 U/L
AST level in HepG2 cells (HepG2 cells [1]): 8.26±0.30 U/L
HDL-C level in HepG2 cells (HepG2 cells [1]): 0.12 ± 0.02 mmol/L
LDL-C level in HepG2 cells (HepG2 cells [1]): 0.01 ± 0.00 mmol/L
TC level in HepG2 cells (HepG2 cells [1]): 0.06 ± 0.02 mmol/L
TG level in HepG2 cells (HepG2 cells [1]): 0.49 ± 0.00 mmol/L
CYP2E1 content in HepG2 cells ([2]; 3 mM (positive control)): 7.80±0.96 U/mg prot
IL-1β content in HepG2 cells (interleukin-1β (IL-1β)): 123.36 ± 1.67 pg/mL
IL-6 content in HepG2 cells (interleukin-6 (IL-6)): 87.25 ± 5.30 pg/mL

IHVKF [F2-1, IHVKF]
cell viability (HepG2 cells [3]; 200 μM): 80.65±5.67%
cell viability (HepG2 cells [3]; 300 μM): 85.39±9.61%
cell viability (HepG2 cells [3]; 400 μM): 94.58±4.22%
CYP2E1 content in HepG2 cells ([2]; 200 μM (low dose), vs model group): do not significantly reduce
CYP2E1 content in HepG2 cells ([2]; 300 μM (medium dose), vs model group): do not significantly reduce
CYP2E1 content in HepG2 cells ([2]; 400 μM (high dose)): 7.97±0.78 U/mg prot
